BindingDB's records for patent US20250313563 (The Broad Institute, 2025)
Where “and” joins values, the source holds several entries; their conditions need not be identical. Equal values may be shown once.

How the values were obtained:
[1] = biological target: Glycogen synthase kinase-3 beta (Homo sapiens, UniProt P49841); test: TR-FRET Assay
In short: (§1)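 Signal is measured as TR-FRET between a terbium anti-phospho-Ser641 antibody and streptavidin-d2, added after an EDTA quench. Compounds are preincubated 30 min in assay buffer.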

[2] = biological target: Glycogen synthase kinase-3 alpha (Homo sapiens, UniProt P49840); test: TR-FRET Assay
In short: as §1

Chain of Glycogen synthase kinase-3 alpha (P49840 whole entry): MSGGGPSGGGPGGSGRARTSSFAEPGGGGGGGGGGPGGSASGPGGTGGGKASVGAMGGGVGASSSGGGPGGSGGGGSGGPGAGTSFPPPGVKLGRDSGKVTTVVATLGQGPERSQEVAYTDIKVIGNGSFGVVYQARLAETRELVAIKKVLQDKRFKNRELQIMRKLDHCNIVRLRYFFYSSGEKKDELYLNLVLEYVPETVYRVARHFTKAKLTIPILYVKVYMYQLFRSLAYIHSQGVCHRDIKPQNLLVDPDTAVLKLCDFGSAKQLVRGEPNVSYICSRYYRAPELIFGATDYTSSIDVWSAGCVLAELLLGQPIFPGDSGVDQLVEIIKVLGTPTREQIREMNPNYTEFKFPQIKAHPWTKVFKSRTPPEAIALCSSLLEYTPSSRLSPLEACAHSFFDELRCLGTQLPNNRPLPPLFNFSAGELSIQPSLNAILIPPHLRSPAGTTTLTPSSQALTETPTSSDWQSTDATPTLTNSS
Chain of Glycogen synthase kinase-3 beta (P49841 whole entry): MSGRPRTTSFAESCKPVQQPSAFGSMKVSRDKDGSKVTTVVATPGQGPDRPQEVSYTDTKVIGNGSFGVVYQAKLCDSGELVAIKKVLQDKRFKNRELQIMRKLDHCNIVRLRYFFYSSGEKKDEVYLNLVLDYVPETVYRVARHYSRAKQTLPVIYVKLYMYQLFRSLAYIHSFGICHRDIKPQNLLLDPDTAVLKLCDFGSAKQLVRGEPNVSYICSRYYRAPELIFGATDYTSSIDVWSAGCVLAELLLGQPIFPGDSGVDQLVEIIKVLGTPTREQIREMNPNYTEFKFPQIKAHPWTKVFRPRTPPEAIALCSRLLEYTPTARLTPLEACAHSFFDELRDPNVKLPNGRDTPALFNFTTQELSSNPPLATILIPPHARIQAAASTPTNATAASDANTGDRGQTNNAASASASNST

| IC50 [1] | IC50 [2] | Compound |
| --- | --- | --- |
| > 5 µM | > 5 µM | CO[C@H]1C[C@@]2(C1)C1=C(N=NC1)NC1=C2C(=O)CC(C)(C)C1 [US20250313563, Compound 901473] |
| 0.1 to 1 µM | < 0.1 µM | CC1(C)CC(=O)C2=C(C1)NC1=C(CN=N1)C21COC2(CN(C(=O)C3CCCCC3)C2)C1 (stereo unspecified) [US20250313563, Compound 947291] |
| 1 to 5 µM | 0.1 to 1 µM | CCC1(c2cc(N3CCOCC3)ccc2F)C2=CN=NC2NC2=C1C(=O)CC(C)(C)C2 (stereo unspecified) [US20250313563, Compound 909203] |
| < 0.1 µM and 1 to 5 µM | < 0.1 µM and 0.1 to 1 µM | CC[C@]1(c2cccc(-c3ccnc4c3CCC4)c2)C2=CN=NC2NC2=C1C(=O)NC(C)(C)C2 (stereo partly specified) [US20250313563, Compound 948313] |
| > 1.67 µM | 0.1 to 1 µM | CC[C@@]1(c2ccccc2)C2=CN=NC2NC2=C1C(=O)C[C@H](C(F)(F)F)C2 (stereo partly specified) [US20250313563, Compound 806608] |
| 1 to 5 µM | < 0.1 µM | CCC1(c2cccc(-c3ccnc(C)c3)c2)C2=CN=NC2NC2=C1C(=O)NC(C)(C)C2 (stereo unspecified) [US20250313563, Compound 914930] |
| > 5 µM | > 5 µM | Cc1cccc2c1CC[C@]21C2=C(N=NC2)NC2=C1C(=O)CC(C)(C)C2 [US20250313563, Compound 913137] |
| > 5 µM | 0.1 to 1 µM | CC[C@@]1(c2cccc(C3=C(C)SN(C)C3)c2)C2=CN=NC2NC2=C1C(=O)NC1(CCCC1)C2 (stereo partly specified) [US20250313563, Compound 950255] |
| > 5 µM | 1 to 5 µM | CC[C@@]1(c2cccc(-c3c(F)cncc3OC)c2)C2=C(N=NC2)NC2=C1C(=O)C(C)(C)C2 [US20250313563, Compound 952562] |
| > 5 µM | 0.1 to 1 µM | CCC1(c2cccc(C(F)(F)F)c2)C2=C(N=NC2)NC2=C1C(=O)NC2 (stereo unspecified) [US20250313563, Compound 913156] |
| 0.1 to 1 µM | < 0.1 µM | CCC1(c2cccc(C)c2)C2=C(N=NC2)NC2=C1C(=O)CC1(CCCC1)C2 (stereo unspecified) [US20250313563, Compound 789565] |
| > 5 µM | > 5 µM | CC[C@@]1(c2ccccc2)C2=CN=NC2NC2=C1C(=O)[C@@H](F)C(C)(C)C2 (stereo partly specified) [US20250313563, Compound 826767] |
| < 0.1 µM | < 0.1 µM | CC[C@@]1(c2cccc(S(=O)(=O)C3CC3)c2)C2=CN=NC2NC2=C1C(=O)NC(C)(C)C2 (stereo partly specified) [US20250313563, Compound 945999] |
| 0.1 to 1 µM | < 0.1 µM | CC[C@]1(c2cccc(N(C)c3ccc(F)nc3)c2)C2=CN=NC2NC2=C1C(=O)CC(C)(C)C2 (stereo partly specified) [US20250313563, Compound 932647] |
| < 0.1 µM and 1 to 5 µM | < 0.1 µM and 0.1 to 1 µM | CCC1(c2cccc(-c3ccnc(C)c3)c2)C2=C(CC(C)(C)NC2=O)NC2N=NC(Cl)=C21 (stereo unspecified) [US20250313563, Compound 948998] |
| < 0.1 µM | < 0.1 µM | CCCC(C(C)=O)c1cccc(C2(CC)C3=CN=NC3NC3=C2C(=O)CC(C)(C)C3)c1 (stereo unspecified) [US20250313563, Compound 909205] |
| > 5 µM | 0.1 to 1 µM | CC[C@@]1(c2cccc(-c3ccnc4c3CCCC4)c2)C2=C(N=NC2)NC2=C1C(=O)N(Cc1ccccc1)C2 [US20250313563, Compound 948552] |
| > 5 µM | > 5 µM | CC[C@@]1(c2cccc(C(F)(F)F)c2)C2=CN=NC2NC2=C1C(=O)N(c1cc(C)n(C)n1)CC2 (stereo partly specified) [US20250313563, Compound 951954] |
| < 0.1 µM | < 0.1 µM | CC1(C)CC(=O)C2=C(C1)NC1=C(CN=N1)C21CCN(S(=O)(=O)c2ccccc2C#N)CC1 [US20250313563, Compound 947479] |
| 0.1 to 1 µM | < 0.1 µM | CC[C@]1(c2cccc(-c3cncn3C)c2)C2=C(CC(C)(C)CC2=O)NC2N=NC(C)=C21 (stereo partly specified) [US20250313563, Compound 913037] |
| < 0.1 µM | < 0.1 µM | CCC1(c2cccc(N(C)c3ccnc(C(F)(F)F)c3)c2)C2=CN=NC2NC2=C1C(=O)CC(C)(C)C2 (stereo unspecified) [US20250313563, Compound 913254] |
| > 5 µM | 0.1 to 1 µM | CC[C@@]1(c2cccc(-c3cc(C)ncc3F)c2)C2=CN=NC2NC2=C1C(=O)NC(C)(C)C2 (stereo partly specified) [US20250313563, Compound 947822] |
| < 0.1 µM and 1 to 5 µM | < 0.1 µM and 0.1 to 1 µM | CC[C@]1(c2cccc(C3CCCC3)c2)C2=CN=NC2NC2=C1C(=O)CC(C)(C)C2 (stereo partly specified) [US20250313563, Compound 949397] |
| 1 to 5 µM | 0.1 to 1 µM | CCC1(c2cccc(N3CC4CCC(C4)C3)c2)C2=CN=NC2NC2=C1C(=O)CC(C)(C)C2 (stereo unspecified) [US20250313563, Compound 885099] |
| < 0.1 µM and 0.1 to 1 µM | < 0.1 µM | CC[C@@]1(c2cccc(C(C)C)c2)C2=C(CC(C)(C)NC2=O)NC2N=NC(C(F)(F)F)=C21 (stereo partly specified) [US20250313563, Compound 950494] |
| > 5 µM | > 5 µM | CC1(C)CC(=O)C2=C(C1)NC1N=NC(C(F)(F)F)=C1C21CCCOc2ccccc21 (stereo unspecified) [US20250313563, Compound 790632] |

Continued, molecule first:

| Compound | IC50 [1] | IC50 [2] |
| --- | --- | --- |
| CC[C@]1(c2cccc(N3CCCCC3)c2)C2=C(CC(C)(C)NC2=O)NC2N=NC(C(F)(F)F)=C21 (stereo partly specified) [US20250313563, Compound 949178] | 1 to 5 µM | 0.1 to 1 µM |
| CC[C@]1(c2cccc(-c3ccnc(C)c3OC)c2)C2=CN=NC2NC2=C1C(=O)CC(C)(C)C2 (stereo partly specified) [US20250313563, Compound 946002] | > 5 µM | > 5 µM |
| CC1N=NC2=C1C1(CCCC1)C1=C(CC(C)(C)CC1=O)N2 (stereo unspecified) [US20250313563, Compound 786072] | < 0.1 µM | < 0.1 µM |
| CC[C@]1(c2cccc(-c3cnc4n3CCCC4)c2)C2=CN=NC2NC2=C1C(=O)CC(C)(C)C2 (stereo partly specified) [US20250313563, Compound 945618] | > 5 µM | 1 to 5 µM |
| Cn1nccc1-c1cccc2c1CCC[C@]21C2=CN=NC2NC2=C1C(=O)CC(C)(C)C2 (stereo partly specified) [US20250313563, Compound 945552] | > 5 µM | 0.1 to 1 µM |
| CC[C@]1(c2cccc(C(F)(F)F)c2)C2=CN=NC2NC2=C1C(=O)N(c1cscn1)CC2 (stereo partly specified) [US20250313563, Compound 952629] | 0.1 to 1 µM | < 0.1 µM |
| CCC1(c2cccc(-c3cncn3C)c2)C2=CN=NC2NC2=C1C(=O)NC(C)(C)C2 (stereo unspecified) [US20250313563, Compound 945597] | < 0.1 µM | < 0.1 µM |
| CC[C@@]1(c2cccc(C(F)(F)F)c2)C2=CN=NC2NC2=C1C(=O)N(C(C)C)CC2 (stereo partly specified) [US20250313563, Compound 857362] | > 5 µM | > 5 µM |
| CC[C@@]1(c2cccc(-c3ccnc4ccccc34)c2)C2=CN=NC2NC2=C1C(=O)CC(C)(C)C2 (stereo partly specified) [US20250313563, Compound 944031] | < 0.1 µM | < 0.1 µM |
| CC1(C)CC(=O)C2=C(C1)NC1N=NC=C1[C@@]21CO[C@@H](c2ccccc2)C1 (stereo partly specified) [US20250313563, Compound 946073] | 0.1 to 1 µM | < 0.1 µM |
| CC[C@]1(c2cccc(C(F)(F)F)c2)C2=CN=NC2NC2=C1C(=O)NCC2 (stereo partly specified) [US20250313563, Compound 912622] | 1 to 5 µM | 0.1 to 1 µM |
| CC[C@]1(c2cccc(Br)c2)C2=C(CC(C)(C)CC2=O)NC2N=NC(C(F)(F)F)=C21 (stereo partly specified) [US20250313563, Compound 810366] | < 0.1 µM and 0.1 to 1 µM | < 0.1 µM |
| CC[C@]1(c2cccc(Br)c2)C2=C(C[C@H](C)CC2=O)NC2N=NC(C(F)(F)F)=C21 (stereo partly specified) [US20250313563, Compound 828848] | < 0.1 µM | < 0.1 µM |
| CC1(c2ccccc2)C2=C(N=NC2)NC2=C1C(=O)CC1(CCCC1)C2 (stereo unspecified) [US20250313563, Compound 789460] | 0.1 to 1 µM | 0.1 to 1 µM |
| CC[C@]1(c2cccc(N(C)c3cc(C)ccn3)c2)C2=CN=NC2NC2=C1C(=O)CC(C)(C)C2 (stereo partly specified) [US20250313563, Compound 945616] | > 5 µM | > 5 µM |
| CC[C@@]1(c2cccc(-c3ccncc3)c2)C2=CN=NC2NC2=C1C(=O)CC(C)(C)[C@H]2F (stereo partly specified) [US20250313563, Compound 959343] | < 0.1 µM and 1 to 5 µM | < 0.1 µM and 0.1 to 1 µM |
| CC1(C)CC(=O)C2=C(C1)NC1=C(CN=N1)[C@@]21CCO[C@H](C(C)(C)C)C1 [US20250313563, Compound 912107] | > 5 µM | > 5 µM |
| CC[C@]1(c2cccc(-c3ccnc(C)c3)c2)C2=CN=NC2NC2=C1C(=O)NC1(CCCC1)C2 (stereo partly specified) [US20250313563, Compound 948660] | < 0.1 µM | < 0.1 µM |
| CC[C@]1(c2cccc(-c3cc(C)ncc3F)c2)C2=C(CC(C)(C)NC2=O)NC2N=NC(C(F)(F)F)=C21 (stereo partly specified) [US20250313563, Compound 949644] | 1 to 5 µM | 0.1 to 1 µM |
| CC1(C)CC(=O)C2=C(C1)NC1=C(CN=N1)C21CCN(S(=O)(=O)c2c(F)cc(F)cc2F)CC1 [US20250313563, Compound 947484] | < 0.1 µM | < 0.1 µM |
| CC1(C)CC(=O)C2=C(C1)NC1=C(CN=N1)C21CCN(S(=O)(=O)c2cccc(F)c2)CC1 [US20250313563, Compound 901466] | < 0.1 µM | < 0.1 µM |
| CC[C@]1(c2cccc(-c3ccnc(C)c3C)c2)C2=C(CC(C)(C)NC2=O)NC2N=NC(C(F)(F)F)=C21 (stereo partly specified) [US20250313563, Compound 948181] | 0.1 to 1 µM | 0.1 to 1 µM |
| CC1(C)CC(=O)C2=C(C1)NC1N=NC(CCC(F)(F)F)=C1[C@]21CCc2c(F)cccc21 (stereo partly specified) [US20250313563, Compound 874324] | 0.1 to 1 µM | 0.1 to 1 µM |
| CCC1(c2cccc(N(C)c3cnn(C)c3)c2)C2=CN=NC2NC2=C1C(=O)CC(C)(C)C2 (stereo unspecified) [US20250313563, Compound 885382] | 1 to 5 µM | 0.1 to 1 µM |
| CC1(C)CC(=O)C2=C(C1)NC1=C(CN=N1)[C@]21COC2(CN(C(=O)[C@@H]3CC3(F)F)C2)C1 [US20250313563, Compound 948219] | < 0.1 µM and 1 to 5 µM | < 0.1 µM and 0.1 to 1 µM |
| CC[C@]1(c2cccc(C(F)(F)F)c2)C2=CN=NC2NC2=C1C(=O)CC(C)(C)C2 (stereo partly specified) [US20250313563, Compound 790754] | 1 to 5 µM | 0.1 to 1 µM |
| CC[C@@]1(c2cccc(-c3cnn(C)c3F)c2)C2=CN=NC2NC2=C1C(=O)NC(C)(C)C2 (stereo partly specified) [US20250313563, Compound 950562] | 0.1 to 1 µM | < 0.1 µM |
